Test system: CD34+ cells from cord blood
Assay: CXCR4 expression on CD34+ cells after ex vivo pulse exposure (flow cytometry)
Type: cell-based, human
Details: for up regulation of CXCR4 on the surface of CD34+ cells: cord blood samples, ex vivo pulse exposure, cytometry histograms compared to isotype control (FIG. 1)
Protocol: Un-manipulated hematopoietic grafts or purified hematopoietic stem cell populations (e.g., SKL cells in mice or CD34^+ cells in humans) are incubated with an EP4 specific agonist: 5-[(1E,3R)-4,4-difluoro-3-hydroxy-4-phenyl-1-buten-1-yl]-1-[6-(2H-tetrazol-5R-yl)hexyl]-2-pyrrolidinone (i.e. L-902,688), on ice or at room temperature at concentrations of 0.001-10 microMolar agonist per 1-10 million cells in 1 ml of culture medium, e.g. IMDM, for 15 minutes-6 hrs. After incubation, the cells are washed 3 times in sterile media or saline and administered to recipients, intravenously. L-902,688 was a generous gift from Merck Frosst (Kirkland, Canada) (Young, et al., 2004).
Referring now to FIG. 1. This graph illustrates that treatment of cells with EP4 agonist ex vivo specifically up regulates CXCR4 expression on CD34^+ cells. […] The bar graph indicator data measured from such experiments graphed as a function of different compounds used dmPGE2, Butaprostone, sulprostone and EP4.
Referring now to FIG. 2. This graph illustrates that signaling via the EP4 receptor is responsible for up regulation of CXCR4 expression. […] Treatment with EP4 agonist ex vivo up regulates CXCR4 expression on CD34^+ cells. […] In the bar chart this effort is normalized to 100%. […] The fact that up regulation of CXCR4 by an EP4 selective agonist is blocked by a selective EP4 antagonist, but not by EP1, 2, 3, antagonist, provides additional evidence that up regulation is mediated through the EP4 receptor.

Row | SMILES | up regulation of CXCR4 on the surface of CD34+ cells | up regulation of CXCR4 expression on CD34+ cells (ex vivo treatment, combined data for 8 cord blood samples (FIG. 2))
1 | O=C1CC[C@H](/C=C/[C@@H](O)C(F)(F)c2ccccc2)N1CCCCCCc1nn[nH]n1 [EP4 agonist, 5-[(1E,3R)-4,4-difluoro-3-hydroxy-4-phenyl-1-buten-1-yl]-1-[6-(2H-tetrazol-5R-yl)hexyl]-2-pyrrolidinone] | significant up regulation | about 3 fold
2 | CCCCC(C)(C)[C@H](O)/C=C/[C@H]1[C@H](O)CC(=O)[C@@H]1C/C=C\CCCC(=O)O [dmPGE2, 16,16 dimethylprostaglandin E2] | significant up regulation | –
